Data reported in ChEMBL document CHEMBL5325488, “Discovery of SMD-3040 as a Potent and Selective SMARCA2 PROTAC Degrader with Strong in vivo Antitumor Activity” (J Med Chem, 2023).

Assays:
Format in all cases: cell-based
[1] = target: T1, von Hippel-Lindau disease tumor suppressor/SWI/SNF-related matrix-associated actin-dependent regulator of chromatin subfamily A member 2 (Homo sapiens, UniProt P51531+P40337); experiment: PROTAC activity at VHL/C-terminal HiBiT fused SMARCA2 in human HeLa cells assessed as induction of SMARCA2 degradation incubated for 24 hrs by Nano-Glo HiBiT analysis
Target sequence in this assay (P51531 whole entry, the tested form may be a part): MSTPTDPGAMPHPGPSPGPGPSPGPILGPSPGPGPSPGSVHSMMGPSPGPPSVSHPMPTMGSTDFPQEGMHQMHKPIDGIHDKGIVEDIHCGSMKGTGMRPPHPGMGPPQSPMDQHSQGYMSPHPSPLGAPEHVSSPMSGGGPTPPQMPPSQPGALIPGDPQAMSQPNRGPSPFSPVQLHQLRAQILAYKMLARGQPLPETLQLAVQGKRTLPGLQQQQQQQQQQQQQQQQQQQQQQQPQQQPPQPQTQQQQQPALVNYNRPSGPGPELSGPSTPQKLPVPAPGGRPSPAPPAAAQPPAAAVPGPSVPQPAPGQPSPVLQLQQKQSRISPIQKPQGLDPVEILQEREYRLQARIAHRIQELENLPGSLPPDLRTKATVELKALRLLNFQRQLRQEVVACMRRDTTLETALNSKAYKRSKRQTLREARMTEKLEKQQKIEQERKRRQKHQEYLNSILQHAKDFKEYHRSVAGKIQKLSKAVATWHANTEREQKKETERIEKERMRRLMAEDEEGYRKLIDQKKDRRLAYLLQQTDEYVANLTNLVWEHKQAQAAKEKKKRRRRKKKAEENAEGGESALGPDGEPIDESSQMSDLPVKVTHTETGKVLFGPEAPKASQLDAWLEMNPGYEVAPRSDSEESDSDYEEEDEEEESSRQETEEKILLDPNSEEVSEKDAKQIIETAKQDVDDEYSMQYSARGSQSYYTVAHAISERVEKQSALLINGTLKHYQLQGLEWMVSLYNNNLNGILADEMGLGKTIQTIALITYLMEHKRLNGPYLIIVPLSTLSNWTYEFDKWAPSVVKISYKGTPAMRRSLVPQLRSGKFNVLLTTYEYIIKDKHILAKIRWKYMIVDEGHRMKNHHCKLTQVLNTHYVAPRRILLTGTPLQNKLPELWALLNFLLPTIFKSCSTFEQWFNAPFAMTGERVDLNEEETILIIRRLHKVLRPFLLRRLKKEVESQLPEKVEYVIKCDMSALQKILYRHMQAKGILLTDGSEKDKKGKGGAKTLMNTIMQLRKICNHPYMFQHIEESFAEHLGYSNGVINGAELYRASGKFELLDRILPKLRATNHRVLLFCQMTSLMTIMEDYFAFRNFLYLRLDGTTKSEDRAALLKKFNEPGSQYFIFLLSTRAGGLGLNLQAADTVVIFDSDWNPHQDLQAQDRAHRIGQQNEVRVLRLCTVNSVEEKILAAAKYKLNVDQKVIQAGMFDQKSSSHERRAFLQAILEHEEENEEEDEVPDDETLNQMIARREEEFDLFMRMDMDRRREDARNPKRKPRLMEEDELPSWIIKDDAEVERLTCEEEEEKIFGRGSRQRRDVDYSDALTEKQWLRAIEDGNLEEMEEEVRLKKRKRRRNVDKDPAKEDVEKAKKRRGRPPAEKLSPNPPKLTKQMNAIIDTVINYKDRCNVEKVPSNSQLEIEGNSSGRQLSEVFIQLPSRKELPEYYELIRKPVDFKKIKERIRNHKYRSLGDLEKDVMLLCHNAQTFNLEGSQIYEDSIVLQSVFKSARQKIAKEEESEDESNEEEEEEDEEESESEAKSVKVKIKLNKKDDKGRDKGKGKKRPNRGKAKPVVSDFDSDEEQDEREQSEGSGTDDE
Target sequence in this assay (P40337 whole entry, the tested form may be a part): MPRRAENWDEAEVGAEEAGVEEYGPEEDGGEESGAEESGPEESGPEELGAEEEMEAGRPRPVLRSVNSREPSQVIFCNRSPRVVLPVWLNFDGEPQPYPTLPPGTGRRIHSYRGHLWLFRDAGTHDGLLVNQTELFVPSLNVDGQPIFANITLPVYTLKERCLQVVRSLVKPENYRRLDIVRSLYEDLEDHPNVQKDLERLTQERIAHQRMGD

[2] = target: T1, von Hippel-Lindau disease tumor suppressor/SWI/SNF-related matrix-associated actin-dependent regulator of chromatin subfamily A member 2; experiment: PROTAC activity at VHL/C-terminal HiBiT fused SMARCA2 in human HeLa cells assessed as induction of SMARCA2 degradation by measuring maximal efficacy incubated for 24 hrs by Nano-Glo HiBiT analysis relative to control
Target sequence in this assay (P40337 whole entry, looked up, the tested form may be a part): as the sequence (P40337 whole entry, the tested form may be a part) above
Target sequence in this assay (P51531 whole entry, looked up, the tested form may be a part): as the sequence (P51531 whole entry, the tested form may be a part) above

[3] = target: T2, von Hippel-Lindau disease tumor suppressor/SWI/SNF-related matrix-associated actin-dependent regulator of chromatin subfamily A member 4 (Homo sapiens, UniProt P51532+P40337); experiment: PROTAC activity at VHL/C-terminal HiBiT fused SMARCA4 in human HeLa cells assessed as induction of SMARCA4 degradation incubated for 24 hrs by Nano-Glo HiBiT analysis
Target sequence in this assay (P51532 whole entry, the tested form may be a part): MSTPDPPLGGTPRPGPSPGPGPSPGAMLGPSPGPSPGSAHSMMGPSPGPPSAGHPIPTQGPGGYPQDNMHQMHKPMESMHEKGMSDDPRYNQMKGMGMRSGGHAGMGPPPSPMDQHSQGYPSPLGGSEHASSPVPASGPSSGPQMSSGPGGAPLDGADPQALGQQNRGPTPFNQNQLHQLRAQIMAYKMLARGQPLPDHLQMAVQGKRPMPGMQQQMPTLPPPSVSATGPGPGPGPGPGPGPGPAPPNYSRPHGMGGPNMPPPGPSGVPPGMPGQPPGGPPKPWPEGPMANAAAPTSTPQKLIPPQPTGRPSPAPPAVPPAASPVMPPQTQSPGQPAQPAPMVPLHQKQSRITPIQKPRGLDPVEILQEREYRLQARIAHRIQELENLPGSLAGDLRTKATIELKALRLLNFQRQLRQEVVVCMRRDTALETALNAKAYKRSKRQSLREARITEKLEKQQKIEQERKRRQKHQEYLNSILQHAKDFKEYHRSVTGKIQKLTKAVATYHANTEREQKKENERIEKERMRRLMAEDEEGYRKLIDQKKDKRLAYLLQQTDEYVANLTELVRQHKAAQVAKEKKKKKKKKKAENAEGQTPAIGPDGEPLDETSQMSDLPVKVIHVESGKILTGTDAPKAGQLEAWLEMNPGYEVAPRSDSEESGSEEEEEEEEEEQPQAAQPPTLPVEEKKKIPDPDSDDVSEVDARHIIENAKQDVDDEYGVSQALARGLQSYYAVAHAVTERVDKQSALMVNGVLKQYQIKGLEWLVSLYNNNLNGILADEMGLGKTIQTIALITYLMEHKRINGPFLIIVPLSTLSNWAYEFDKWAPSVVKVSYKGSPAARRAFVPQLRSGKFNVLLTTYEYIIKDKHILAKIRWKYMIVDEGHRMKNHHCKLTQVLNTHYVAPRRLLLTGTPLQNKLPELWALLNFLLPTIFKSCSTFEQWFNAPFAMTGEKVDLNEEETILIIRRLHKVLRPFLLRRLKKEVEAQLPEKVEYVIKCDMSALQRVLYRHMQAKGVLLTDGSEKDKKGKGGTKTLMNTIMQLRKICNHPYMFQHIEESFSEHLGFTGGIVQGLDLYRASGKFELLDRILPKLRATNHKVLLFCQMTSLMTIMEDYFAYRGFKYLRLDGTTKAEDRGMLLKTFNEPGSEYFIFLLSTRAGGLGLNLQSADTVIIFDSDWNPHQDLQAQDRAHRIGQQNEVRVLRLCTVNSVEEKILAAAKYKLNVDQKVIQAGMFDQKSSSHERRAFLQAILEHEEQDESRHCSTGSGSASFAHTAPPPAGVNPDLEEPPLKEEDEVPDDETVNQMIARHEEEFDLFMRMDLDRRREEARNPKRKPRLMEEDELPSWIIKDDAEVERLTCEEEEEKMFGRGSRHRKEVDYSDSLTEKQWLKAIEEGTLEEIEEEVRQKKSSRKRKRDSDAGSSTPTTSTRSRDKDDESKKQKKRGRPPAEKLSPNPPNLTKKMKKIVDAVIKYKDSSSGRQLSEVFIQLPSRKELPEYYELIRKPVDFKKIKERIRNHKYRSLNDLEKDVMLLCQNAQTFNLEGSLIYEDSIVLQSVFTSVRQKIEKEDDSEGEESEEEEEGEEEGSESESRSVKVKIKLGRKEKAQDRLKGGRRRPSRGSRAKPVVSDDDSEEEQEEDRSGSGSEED
Target sequence in this assay (P40337 whole entry, the tested form may be a part): as the sequence (P40337 whole entry, the tested form may be a part) above

[4] = target: T2, von Hippel-Lindau disease tumor suppressor/SWI/SNF-related matrix-associated actin-dependent regulator of chromatin subfamily A member 4; experiment: PROTAC activity at VHL/C-terminal HiBiT fused SMARCA4 in human HeLa cells assessed as induction of SMARCA4 degradation by measuring maximal efficacy incubated for 24 hrs by Nano-Glo HiBiT analysis relative to control
Target sequence in this assay (P40337 whole entry, looked up, the tested form may be a part): as the sequence (P40337 whole entry, the tested form may be a part) above
Target sequence in this assay (P51532 whole entry, looked up, the tested form may be a part): as the sequence (P51532 whole entry, the tested form may be a part) above

| DC50 [1] | Emax [2] | DC50 [3] | Emax [4] | SMILES |
| --- | --- | --- | --- | --- |
| 37 nM | 95% | 53 nM | 93% | Cc1cc([C@H](C(=O)N2C[C@H](O)C[C@H]2C(=O)N[C@@H](CC(=O)NCCCCCCCCCCn2cc(-c3cc(-c4ccccc4O)nnc3N)cn2)c2ccc(-c3scnc3C)cc2)C(C)C)on1 |
| 46 nM | 93% | 90 nM | 89% | Cc1cc([C@H](C(=O)N2C[C@H](O)C[C@H]2C(=O)N[C@@H](CC(=O)NCCCCCCCCCCCCn2cc(-c3cc(-c4ccccc4O)nnc3N)cn2)c2ccc(-c3scnc3C)cc2)C(C)C)on1 |
| 71 nM | 94% | 75 nM | 94% | Cc1cc([C@H](C(=O)N2C[C@H](O)C[C@H]2C(=O)N[C@@H](CC(=O)NCCCCCCCCCn2cc(-c3cc(-c4ccccc4O)nnc3N)cn2)c2ccc(-c3scnc3C)cc2)C(C)C)on1 |
| 6 nM | 93% | 47 nM | 87% | Cc1ncsc1-c1ccc([C@H](C)NC(=O)[C@@H]2C[C@@H](O)CN2C(=O)[C@@H](NC(=O)CCCCCCCCCCn2cc(-c3cc(-c4ccccc4O)nnc3N)cn2)C(C)(C)C)cc1 |
| 5 nM | 90% | 219 nM | 66% | Cc1ncsc1-c1ccc([C@H](C)NC(=O)[C@@H]2C[C@@H](O)CN2C(=O)[C@@H](NC(=O)[C@H]2CC[C@H](CN3CCC4(CCC(n5cc(-c6cc(-c7ccccc7O)nnc6N)cn5)CC4)CC3)CC2)C(C)(C)C)cc1 |
| 16 nM | 89% | 212 nM | 81% | Cc1ncsc1-c1ccc([C@H](C)NC(=O)[C@@H]2C[C@@H](O)CN2C(=O)[C@@H](NC(=O)CCCCCCn2cc(-c3cc(-c4ccccc4O)nnc3N)cn2)C(C)(C)C)cc1 |
| 3 nM | 95% | 31 nM | 93% | Cc1ncsc1-c1ccc([C@H](C)NC(=O)[C@@H]2C[C@@H](O)CN2C(=O)[C@@H](NC(=O)CCCCCCCCn2cc(-c3cc(-c4ccccc4O)nnc3N)cn2)C(C)(C)C)cc1 |
| 3 nM | 95% | 23 nM | 90% | Cc1ncsc1-c1ccc([C@H](C)NC(=O)[C@@H]2C[C@@H](O)CN2C(=O)[C@@H](NC(=O)CCCCCCCn2cc(-c3cc(-c4ccccc4O)nnc3N)cn2)C(C)(C)C)cc1 |
| > 1000 nM | 19% | > 1000 nM | 0% | Cc1ncsc1-c1ccc([C@H](C)NC(=O)[C@@H]2C[C@@H](O)CN2C(=O)[C@@H](NC(=O)CCn2cc(-c3cc(-c4ccccc4O)nnc3N)cn2)C(C)(C)C)cc1 |
| 12 nM | 93% | > 1000 nM | 73% | Cc1ncsc1-c1ccc([C@H](C)NC(=O)[C@@H]2C[C@@H](O)CN2C(=O)[C@@H](NC(=O)CCCCCn2cc(-c3cc(-c4ccccc4O)nnc3N)cn2)C(C)(C)C)cc1 |
| 455 nM | 71% | > 1000 nM | 47% | Cc1ncsc1-c1ccc([C@H](C)NC(=O)[C@@H]2C[C@@H](O)CN2C(=O)[C@@H](NC(=O)COCCOCCOCCn2cc(-c3cc(-c4ccccc4O)nnc3N)cn2)C(C)C)cc1 |
| 67 nM | 91% | 66 nM | 93% | Cc1cc([C@H](C(=O)N2C[C@H](O)C[C@H]2C(=O)N[C@@H](CC(=O)NCCCCCCCCn2cc(-c3cc(-c4ccccc4O)nnc3N)cn2)c2ccc(-c3scnc3C)cc2)C(C)C)on1 |
| 6 nM | 94% | 248 nM | 77% | Cc1ncsc1-c1ccc([C@H](C)NC(=O)[C@@H]2C[C@@H](O)CN2C(=O)[C@@H](NC(=O)CCCCCN2CCC(n3cc(-c4cc(-c5ccccc5O)nnc4N)cn3)CC2)C(C)(C)C)cc1 |
| 34 nM | 90% | 315 nM | 72% | Cc1ncsc1-c1ccc([C@@H](C)NC(=O)[C@H]2C[C@H](O)CN2C(=O)[C@H](NC(=O)C2CCC(N3CCC4(CCC(n5cc(-c6cc(-c7ccccc7O)nnc6N)cn5)CC4)CC3)CC2)C(C)(C)C)cc1 (single isomer, unassigned) |
| 134 nM | 85% | > 1000 nM | 57% | Cc1ncsc1-c1ccc([C@H](C)NC(=O)[C@@H]2C[C@@H](O)CN2C(=O)[C@@H](NC(=O)CCCCn2cc(-c3cc(-c4ccccc4O)nnc3N)cn2)C(C)(C)C)cc1 |
| 96 nM | 91% | 91 nM | 92% | Cc1cc([C@H](C(=O)N2C[C@H](O)C[C@H]2C(=O)N[C@@H](CC(=O)NCCCCCCCn2cc(-c3cc(-c4ccccc4O)nnc3N)cn2)c2ccc(-c3scnc3C)cc2)C(C)C)on1 |
| 25 nM | 85% | > 1000 nM | 55% | Cc1ncsc1-c1ccc([C@H](C)NC(=O)[C@@H]2C[C@@H](O)CN2C(=O)[C@@H](NC(=O)C2CCC(N3CC4(CCC(n5cc(-c6cc(-c7ccccc7O)nnc6N)cn5)CC4)C3)CC2)C(C)(C)C)cc1 (some centres not stated) |
| 3 nM | 95% | 13 nM | 96% | Cc1ncsc1-c1ccc([C@H](C)NC(=O)[C@@H]2C[C@@H](O)CN2C(=O)[C@@H](NC(=O)CCCCCCCCCCCn2cc(-c3cc(-c4ccccc4O)nnc3N)cn2)C(C)(C)C)cc1 |
| > 1000 nM | 12% | > 1000 nM | 0% | Cc1ncsc1-c1ccc([C@H](C)NC(=O)[C@@H]2C[C@@H](O)CN2C(=O)[C@@H](NC(=O)CCN2CCC(CCCn3cc(-c4cc(-c5ccccc5O)nnc4N)cn3)CC2)C(C)C)cc1 |
| 682 nM | 62% | 585 nM | 76% | Cc1ncsc1-c1ccc([C@H](C)NC(=O)[C@@H]2C[C@@H](O)CN2C(=O)[C@@H](NC(=O)CCN2CCN(CCCn3cc(-c4cc(-c5ccccc5O)nnc4N)cn3)CC2)C(C)C)cc1 |
| 132 nM | 88% | 463 nM | 84% | Cc1ncsc1-c1ccc([C@H](C)NC(=O)[C@@H]2C[C@@H](O)CN2C(=O)[C@@H](NC(=O)CCCn2cc(-c3cc(-c4ccccc4O)nnc3N)cn2)C(C)(C)C)cc1 |
| 18 nM | 86% | 213 nM | 84% | Cc1cc([C@H](C(=O)N2C[C@H](O)C[C@H]2C(=O)N[C@@H](CC(=O)NCCCCCCn2cc(-c3cc(-c4ccccc4O)nnc3N)cn2)c2ccc(-c3scnc3C)cc2)C(C)C)on1 |
| 313 nM | 77% | > 1000 nM | 59% | Cc1ncsc1-c1ccc([C@H](C)NC(=O)[C@@H]2C[C@@H](O)CN2C(=O)[C@@H](NC(=O)CCOCCOCCn2cc(-c3cc(-c4ccccc4O)nnc3N)cn2)C(C)C)cc1 |
